According to patent US20120071475A1, “UREA DERIVATIVES HAVING PI3K-INHIBITING ACTIVITY” (SHIONOGI & CO., LTD., priority 2009, published 2012):
Like-named read-outs stand apart in the source and are kept apart here.

Experiments:
[1] = biological target: PI3Kα (Homo sapiens, UniProt P42336); assay: PI3Kα inhibitory activity (Ki value); type: biochemical
Protocol: (§1) According to Example 2 above, after 80 μg/mL PI-3 kinase γ of the enzyme solution (80 μg/mL PI-3 kinase γ, 10 mmol/L MgCl2, 5 mmol/L DTT) was changed to 0.8 μg/mL PI-3 kinase α, an inhibition ratio was calculated by a method similar to the method for measuring PI3Kγ inhibitory activity, and then defined as the PI3Kα inhibitory activity.
The α inhibitory activity (Ki value) of a compound was evaluated according to the following procedure.
According to Example 4 above, a Km value for PI3Kα was determined to calculate a Ki value.

[2] = biological target: PI3Kβ (Homo sapiens, UniProt P42338); assay: PI3Kβ inhibitory activity (Ki value); type: biochemical
PI3Kβ, sequence (P42338 whole entry, species assumed): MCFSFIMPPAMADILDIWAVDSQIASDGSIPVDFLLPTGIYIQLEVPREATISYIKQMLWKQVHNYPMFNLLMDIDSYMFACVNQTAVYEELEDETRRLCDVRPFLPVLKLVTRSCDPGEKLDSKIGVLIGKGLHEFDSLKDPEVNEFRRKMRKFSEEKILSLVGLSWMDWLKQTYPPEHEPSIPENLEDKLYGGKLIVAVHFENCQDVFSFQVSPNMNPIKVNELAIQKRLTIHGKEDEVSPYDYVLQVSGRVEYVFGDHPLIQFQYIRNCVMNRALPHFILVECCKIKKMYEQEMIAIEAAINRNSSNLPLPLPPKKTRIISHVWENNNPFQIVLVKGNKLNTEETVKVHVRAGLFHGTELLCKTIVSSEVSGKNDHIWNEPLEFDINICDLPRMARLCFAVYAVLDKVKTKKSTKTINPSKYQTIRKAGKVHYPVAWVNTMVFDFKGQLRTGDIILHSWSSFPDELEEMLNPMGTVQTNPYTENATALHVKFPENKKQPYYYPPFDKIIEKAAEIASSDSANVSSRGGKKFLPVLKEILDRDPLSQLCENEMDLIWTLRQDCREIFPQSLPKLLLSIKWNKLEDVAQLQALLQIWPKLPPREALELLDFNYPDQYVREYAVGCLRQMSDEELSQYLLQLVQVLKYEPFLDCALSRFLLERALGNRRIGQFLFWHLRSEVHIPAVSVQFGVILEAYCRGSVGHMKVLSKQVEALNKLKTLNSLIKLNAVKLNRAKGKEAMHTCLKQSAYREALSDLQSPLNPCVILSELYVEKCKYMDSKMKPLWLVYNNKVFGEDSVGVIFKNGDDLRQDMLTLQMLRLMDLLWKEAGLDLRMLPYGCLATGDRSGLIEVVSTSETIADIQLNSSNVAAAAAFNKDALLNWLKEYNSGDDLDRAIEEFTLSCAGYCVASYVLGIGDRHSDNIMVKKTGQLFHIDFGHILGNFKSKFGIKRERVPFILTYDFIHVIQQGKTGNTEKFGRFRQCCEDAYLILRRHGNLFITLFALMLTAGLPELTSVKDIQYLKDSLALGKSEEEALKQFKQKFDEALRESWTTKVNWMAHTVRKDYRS
PI3Kβ, sequence (P27986 whole entry partner, species assumed): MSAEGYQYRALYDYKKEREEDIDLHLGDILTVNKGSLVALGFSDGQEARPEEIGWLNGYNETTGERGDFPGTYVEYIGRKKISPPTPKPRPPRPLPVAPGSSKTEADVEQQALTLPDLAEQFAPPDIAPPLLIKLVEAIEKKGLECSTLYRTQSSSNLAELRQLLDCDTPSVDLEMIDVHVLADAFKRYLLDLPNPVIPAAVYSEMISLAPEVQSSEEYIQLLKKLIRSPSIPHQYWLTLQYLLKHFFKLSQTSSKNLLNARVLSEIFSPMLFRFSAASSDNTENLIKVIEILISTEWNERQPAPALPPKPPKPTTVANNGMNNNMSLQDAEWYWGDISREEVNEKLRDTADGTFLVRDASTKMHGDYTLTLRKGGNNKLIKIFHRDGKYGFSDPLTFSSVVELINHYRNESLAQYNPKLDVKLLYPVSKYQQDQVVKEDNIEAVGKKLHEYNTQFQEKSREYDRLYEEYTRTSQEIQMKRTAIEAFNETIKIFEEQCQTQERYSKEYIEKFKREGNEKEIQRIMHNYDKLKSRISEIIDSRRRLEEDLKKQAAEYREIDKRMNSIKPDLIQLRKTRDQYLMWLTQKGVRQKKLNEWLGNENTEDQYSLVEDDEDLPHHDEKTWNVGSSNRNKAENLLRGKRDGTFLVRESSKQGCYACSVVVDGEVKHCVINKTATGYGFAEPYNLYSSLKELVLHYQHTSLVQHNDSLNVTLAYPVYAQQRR
Protocol: as §1, with “60” for “0.8”, “β,” for “α, an inhibition ratio was calculated by”, “activity was used to calculate an inhibition ratio, which was” for “activity, and then”, “PI3Kβ” for “PI3Kα”
According to Example 4 above, a Km value for PI3Kβ was determined to calculate a Ki value.

[3] = Metabolic stability test (pooled human liver microsome); type: in vitro ADME; details: percentage of test compound remained after 30 minutes, pooled human liver microsome 0.5 mg protein/mL, 1 mmol/L NADPH, 37° C., compound 0.5 μM
Method in brief: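 Pooled human liver microsomes (0.5 mg protein/mL) incubated with compound and 1 mmol/L NADPH at 37° C. in pH 7.4 Tris buffer for 0 or 30 min. Parent quantified by LC/MS/MS after methanol/acetonitrile quench; value is % remaining at 30 min versus 0 min.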

[4] = biological target: T1, hERG channel (IKr) (Homo sapiens, UniProt Q12809); assay: hERG test (whole-cell patch-clamp, IKr in HEK293 cells); type: cell-based; details: human, HEK293 cells expressing hERG channel, pH 7.4, inhibition of maximum tail current (IKr), compound 1 μM
T1 construct: expressed in transfected cells; host or cells: HEK293
T1 sequence (Q12809 whole entry): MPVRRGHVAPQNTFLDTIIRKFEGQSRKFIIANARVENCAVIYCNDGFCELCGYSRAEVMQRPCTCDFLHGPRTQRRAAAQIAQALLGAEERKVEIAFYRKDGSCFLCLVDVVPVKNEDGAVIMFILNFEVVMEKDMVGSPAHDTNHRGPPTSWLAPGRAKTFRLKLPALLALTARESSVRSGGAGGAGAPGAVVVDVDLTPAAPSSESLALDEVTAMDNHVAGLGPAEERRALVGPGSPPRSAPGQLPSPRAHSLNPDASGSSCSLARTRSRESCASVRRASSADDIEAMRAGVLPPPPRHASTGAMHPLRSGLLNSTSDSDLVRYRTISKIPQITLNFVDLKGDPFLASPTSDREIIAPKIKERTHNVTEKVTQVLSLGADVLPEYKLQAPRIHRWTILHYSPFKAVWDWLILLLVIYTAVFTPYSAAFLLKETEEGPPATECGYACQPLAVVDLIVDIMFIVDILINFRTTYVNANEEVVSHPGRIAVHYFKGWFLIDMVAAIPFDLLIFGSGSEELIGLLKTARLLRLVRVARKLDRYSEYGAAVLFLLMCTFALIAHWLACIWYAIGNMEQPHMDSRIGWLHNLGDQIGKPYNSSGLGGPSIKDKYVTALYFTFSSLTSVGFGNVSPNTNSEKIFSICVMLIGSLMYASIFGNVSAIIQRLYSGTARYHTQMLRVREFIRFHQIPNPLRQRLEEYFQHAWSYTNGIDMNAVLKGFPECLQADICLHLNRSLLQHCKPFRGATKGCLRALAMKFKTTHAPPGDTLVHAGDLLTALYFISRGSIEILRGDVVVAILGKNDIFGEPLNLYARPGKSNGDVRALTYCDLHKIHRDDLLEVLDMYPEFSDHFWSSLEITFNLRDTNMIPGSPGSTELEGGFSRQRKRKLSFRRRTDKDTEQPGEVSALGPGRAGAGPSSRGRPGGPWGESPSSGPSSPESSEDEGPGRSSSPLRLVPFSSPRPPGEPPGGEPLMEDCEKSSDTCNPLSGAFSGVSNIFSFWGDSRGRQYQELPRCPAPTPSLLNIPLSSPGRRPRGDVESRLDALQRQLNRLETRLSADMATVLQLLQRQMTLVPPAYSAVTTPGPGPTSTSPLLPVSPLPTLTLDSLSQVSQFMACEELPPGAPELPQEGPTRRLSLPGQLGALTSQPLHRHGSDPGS
Method in brief: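 hERG-expressing HEK293 cells, automated whole-cell patch clamp: hold −80 mV, +50 mV for 2 s, then −50 mV for 2 s to record IKr tail current. Compound in extracellular solution (pH 7.4) for 10 min at room temperature; inhibition of maximum tail current calculated versus pre-application and compared with 0.1% DMSO vehicle.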

[5] = system: CYP1A2, CYP2C9, CYP2C19, CYP2D6 and CYP3A4 (one value for the five species); assay: CYP inhibition test, five CYP species together (5CYPs_IC50; pooled human liver microsome); type: in vitro ADME; details: human, microsomes
Method in brief: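 Pooled human liver microsomes (0.2 mg/mL) in 50 mM Hepes were incubated with a substrate cocktail of 0.5 μM ethoxyresorufin, 100 μM tolbutamide, 50 μM S-mephenytoin, 5 μM dextromethorphan and 1 μM terfenadine plus NADPH for 15 min at 37 °C. Compound tested at 1–20 μM (4 points). Metabolites read by fluorescence or LC/MS/MS, and IC50 derived by logistic fit against a DMSO control.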

[6] = class symbols, read-out: PI3K α Ki
[7] = class symbols, read-out: PI3K β Ki

PI3Kα, sequence (P42336 whole entry, species assumed): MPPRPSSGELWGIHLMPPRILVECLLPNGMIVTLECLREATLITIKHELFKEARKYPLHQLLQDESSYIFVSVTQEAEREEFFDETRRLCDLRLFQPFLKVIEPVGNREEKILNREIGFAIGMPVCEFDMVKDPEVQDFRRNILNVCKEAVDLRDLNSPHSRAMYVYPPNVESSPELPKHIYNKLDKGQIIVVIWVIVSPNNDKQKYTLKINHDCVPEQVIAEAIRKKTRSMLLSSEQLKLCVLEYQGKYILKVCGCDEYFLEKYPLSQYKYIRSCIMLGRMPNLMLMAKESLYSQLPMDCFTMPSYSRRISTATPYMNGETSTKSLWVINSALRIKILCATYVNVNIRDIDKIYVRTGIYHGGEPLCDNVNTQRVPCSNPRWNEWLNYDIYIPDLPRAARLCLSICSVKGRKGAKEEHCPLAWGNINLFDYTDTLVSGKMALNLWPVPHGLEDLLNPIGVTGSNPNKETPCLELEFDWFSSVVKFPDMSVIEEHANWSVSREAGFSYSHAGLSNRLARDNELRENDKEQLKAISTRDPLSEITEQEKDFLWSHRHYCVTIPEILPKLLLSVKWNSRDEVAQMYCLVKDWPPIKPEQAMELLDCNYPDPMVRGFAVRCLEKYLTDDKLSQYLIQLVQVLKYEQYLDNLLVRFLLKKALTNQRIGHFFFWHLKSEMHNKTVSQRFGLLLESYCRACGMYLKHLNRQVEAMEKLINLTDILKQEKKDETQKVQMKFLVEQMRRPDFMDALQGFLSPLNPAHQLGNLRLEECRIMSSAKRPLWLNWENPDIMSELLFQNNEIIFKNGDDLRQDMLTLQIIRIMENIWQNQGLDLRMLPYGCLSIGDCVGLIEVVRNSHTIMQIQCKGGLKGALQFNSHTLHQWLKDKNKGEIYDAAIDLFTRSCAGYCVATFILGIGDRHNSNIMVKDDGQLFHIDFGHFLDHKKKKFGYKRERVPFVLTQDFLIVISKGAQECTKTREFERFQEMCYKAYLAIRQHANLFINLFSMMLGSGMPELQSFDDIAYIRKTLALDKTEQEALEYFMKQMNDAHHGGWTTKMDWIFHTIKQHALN
PI3Kα, sequence (P27986 whole entry partner, species assumed): as the sequence (P27986 whole entry partner, species assumed) above

SMILES | Ki [1, 6] | Ki ([1]; read-out: PI3Kα Ki value) | Ki [2, 7] | Ki ([2]; read-out: PI3Kβ Ki value) | hLMS_ox(at 0.5 μM) % [3] | IC50 at 15 min [5] | inhibition at 10 min, 1 µM [4]
COc1cc(N2CCc3nc(NC(=O)Nc4ccccc4C(=O)NC(C)C)sc3C2)nc(OC)n1 [Compound I-12] | > 3 µM | > 12 µM | ≤ 3 µM | 0.34 µM | – | – | –
COc1cc(N2CCc3nc(NC(=O)Nc4ccccc4C(=O)NCCF)sc3C2)nc(OC)n1 [Compound I-88] | – | – | – | – | 88.2% | ≥ 10 µM | 5.7%
COc1nc(Cl)cc(N2CCc3nc(NC(=O)Nc4cnccc4C(=O)NC(C)C)sc3C2)n1 [Compound I-91] | > 3 µM | – | ≤ 3 µM | – | – | ≥ 10 µM | 0.9%
COc1cncc(-c2ccc3nc(NC(=O)Nc4ccccc4OCCC(C)C)cn3n2)c1 [Compound I-114] | ≤ 3 µM | 1.1 µM | ≤ 3 µM | 0.66 µM | – | > 20 µM | –
Cc1nc(NC(=O)Nc2ccccc2C(=O)NC(C)C)sc1-c1ccc(S(C)(=O)=O)c(F)c1 [Compound I-127] | > 3 µM | > 7 µM | ≤ 3 µM | 0.34 µM | 92.6% | – | 0.6%
CC(C)NC(=O)c1ccccc1NC(=O)Nc1nc2c(s1)CN(c1cncc(C(F)(F)F)c1)CC2 [Compound I-131] | > 3 µM | – | > 3 µM | – | – | ≥ 10 µM | 3.9%
COc1cc(N2CCc3nc(NC(=O)Nc4ccccc4C(=O)NC(C)C(O)C(F)(F)F)sc3C2)nc(OC)n1 (stereo not shown) [Compound I-139] | – | – | – | – | 84.8% | – | –
COc1cc(N2CCc3nc(NC(=O)Nc4cn(C)nc4C(=O)NCC(F)(F)F)sc3C2)nc(OC)n1 [Compound I-148] | ≤ 3 µM | – | ≤ 0.3 µM | – | 87.9% | – | 3.3%
Cc1nc(NC(=O)Nc2ccccc2C(=O)NC(C)C)sc1-c1csc(S(=O)(=O)N(C)CCN(C)C)c1 [Compound I-191] | – | – | – | – | – | ≥ 10 µM | –

Second part, led by results:

Ki [1, 6] | Ki ([1]; read-out: PI3Kα Ki value) | Ki [2, 7] | Ki ([2]; read-out: PI3Kβ Ki value) | hLMS_ox(at 0.5 μM) % [3] | IC50 at 15 min [5] | SMILES | inhibition at 10 min, 1 µM [4]
– | – | – | – | 110% | – | COc1cc(N2CCc3nc(NC(=O)Nc4ccccc4C(=O)NN4CCN(C)CC4)sc3C2)nc(OC)n1 [Compound I-195] | –
> 3 µM | – | > 3 µM | – | – | – | COc1nc(Cl)cc(N2CCc3nc(NC(=O)Nc4ccccc4C(=O)NC4CCCOC4)sc3C2)n1 (stereo not shown) [Compound I-197] | 4.8%
– | – | – | – | – | > 20 µM | CC(C)NC(=O)c1ccccc1NC(=O)Nc1nc2c(s1)CN(c1cccc(S(C)(=O)=O)c1)CC2 [Compound I-198] | 5.9%
– | – | – | – | 88.5% | > 20 µM | COc1cc(N2CCc3nc(NC(=O)Nc4ccccc4C(=O)NC4CCOCC4)sc3C2)nc(OC)n1 [Compound I-203] | 6.7%
– | – | – | – | – | ≥ 10 µM | C[C@@H](CO)NC(=O)c1ccccc1NC(=O)Nc1nc2c(s1)CN(c1cncc(S(C)(=O)=O)c1)CC2 [Compound I-211] | –
> 3 µM | – | > 3 µM | – | 82.5% | ≥ 10 µM | COc1cncc(-c2cc(NC(=O)Nc3ccccc3C(=O)NC(C)C)nn2C)c1 [Compound I-226] | –
